Experimental data from patent publication US20180344768A1, “NK CELL-BASED THERAPY” (Onkimmune Limited, priority 2016, published 2018).

Key:
PD-L1 = assay: Checkpoint ligand expression on MM cells treated with IL-6; format: cell-based, human; conditions: 100 ng/mL IL-6, 48 hours
Procedure: (§1) MM cells in log phase were seeded at 0.5 million/mL in RPMI1640 medium containing 10% FBS. A final concentration of 100 ng/mL IL-6 or same volume of vehicle (PBS) was used to treat MM cells for 48 hours. Then MM cells were harvested, washed, and stained with PD-L1 and PD-L2 antibodies (2.5 uL/test). Flow cytometric data were acquired using a FACS Canto II, and the results were further analyzed by […] 8.0.1 software.

PD-L2 = assay: as above; format: cell-based, human; conditions: 100 ng/mL IL-6, 48 hours
Procedure: as §1

RPMI8226 cells = assay: Inhibition of KHYG-1 cell cytotoxicity by IL-6, flow cytometry; format: cell-based; conditions: RPMI8226, IL-6 100 ng/mL, E:T 1:1, 12 hr incubation
Procedure: (§2) KHYG-1, RPMI8226, MM1.S and K562 cells were cultured and maintained as described above. Cells were harvested in log phase, washed and re-suspended in pre-warmed appropriate mediums, before adjusting the cell concentration to 1 million/mL. The concentration of target cells was adjusted according to the E:T (effector: target) ratio. 0.5 mL KHYG-1 cells and 0.5 mL target cells were added to one well of a 24-well plate. IL-6 was added to the wells at final concentration of 100 ng/mL. The plates were then placed in a humidified 37° C./5% CO2 incubator for 12 hours (6 or 4 hours for K562 cells). The same mixture of KHYG-1 and target cells at time point 0 hr were used as a control.
(§3) Flow cytometry was used to measure the cytotoxicity of KHYG-1 cells. The co-cultured cells were collected (at different time points), washed and then stained with CD2-APC antibody (2.5 uL/test) first, then stained with AnnexinV-FITC (2.5 uL/test) and SYTOX-Green (0.5 uL/test) using AnnexinV binding buffer. Data were further analyzed using FlowJo 7.6.1 software. CD2-positive and CD2-negative gates were set which represent KHYG-1 cells and target cells, respectively. KHYG-1 cells were 100% positive for CD2, but K562, RPMI8226 and MM1.S cells were CD2-negative. Finally, the percentage of AnnexinV-FITC and SYTOX-Green positive cells (dead cells) in CD2-negative population was analyzed.

K562 cells = assay: as above; format: cell-based; conditions: K562, IL-6 100 ng/mL
Procedure: as §2, §3

MM1.S cells = assay: as above; format: cell-based; conditions: IL-6 100 ng/mL, E:T 1:1, 12 hr incubation
Procedure: as §2, §3

[1] = system: p-STAT3, p-SHP1, p-SHP2, p-P44/42; assay: IL-6 / IL-2 signaling in KHYG-1 cells, gel electrophoresis; format: cell-based, human
Description: PE labeled mouse anti-human CD126 (IL-6 receptor alpha chain) (Catalog: 551850), PE labeled mouse anti-human CD130 (gp130, IL-6 receptor-associated signal transducer) (Catalog #:555757), PE-labeled Mouse IgG1 k isotype control (Catalog: 555749), APC-labeled mouse anti-human CD2 (Catalog: 560642), FITC-labeled mouse anti-human CD2 (Catalog: 555326), APC-labeled mouse anti-human PD-L1 (Catalog: 563741) and APC-labeled mouse anti-human PD-L2 (Catalog: 557926) were bought from BD Pharmingen. APC-labeled mouse anti-human PD1 antibody (Catalog: 329907) was bought from Biolegend. Phosphor-Stat3(Ser727) mouse mAb (Catalog:9136), Phosphor-Shp-1(Tyr564) rabbit mAb (Catalog; 8849), Phosphor-Shp-2(Tyr580) rabbit mAb (Catalog: 5431), Phospho-p44/42 MAPK (Erk1/2) (Thr202/Tyr204) rabbit mAb (Catalog: 4370) and p44/42 MAPK (Erk1/2) rabbit mAb were bought from Cell Signaling Technology. Phosphor-Stat3(Tyr705) mouse mAb (Catalog: sc-81523) and rabbit anti-human Stat3 polyclonal antibody (Catalog: sc-7179) were bought from Santa Cruz Biotechnology. Mouse anti-beta actin (Catalog: A5441) was bought from SIGMA-ALDRICH. Functional IL-6 blocking antibody (Catalog: 501110) and the related isotype control antibody (Catalog: 400414) were bought from Biolegend.
KHYG-1 cells were cultivated and maintained as mentioned above.

[2] = system: NKG2D (activating receptor); assay: Receptor expression on KHYG-1 cells after IL-6 stimulation; format: cell-based, human; conditions: 50 ng/mL IL-6 in the presence of IL-2, 24 hours
Description: (§4) Negative control means FMO. APC anti-human NKG2D Antibody (catalog number #320807) was bought from Biolegend. APC anti-human NKG2A Antibody (catalog number FAB1059A) was bought from R&D systems.

[3] = system: NKG2A (inhibitory receptor); assay: as above; format: cell-based, human; conditions: 50 ng/mL IL-6 in the presence of IL-2, 24 hours
Description: as §4

[4] = KHYG-1 cells starved of IL-2 for 6 hours, cytokine alone (IL-2 10 ng/mL or IL-6 100 ng/mL)
[5] = KHYG-1 cells, IL-6 in the presence of IL-2

Question: With “IL-6: Recombinant Human IL-6 (Catalog: 200-06) from PEPROTECH” as the substance, how does the PD-L1 expression (PD-L1; MM1.S cells) read?
Answer: upregulation

Question: What about the PD-L1 expression (PD-L1; NCI-H929 cells) of the same substance?
Answer: upregulation

Question: What about the PD-L1 expression (PD-L1; RPMI8226 cells) of the same substance?
Answer: upregulation

Question: And the PD-L1 expression (PD-L1; U266 cells)?
Answer: upregulation

Question: What about the PD-L2 expression (PD-L2; MM1.S cells) of the same substance?
Answer: upregulation

Question: What about the PD-L2 expression (PD-L2; NCI-H929 cells) of the same substance?
Answer: upregulation

Question: What about the PD-L2 expression (PD-L2; RPMI8226 cells) of the same substance?
Answer: upregulation

Question: And the PD-L2 expression (PD-L2; U266 cells)?
Answer: upregulation

Question: What about the “percentage of dead target cells co-cultured with KHYG-1 cells” value (shortened to “percentage”) (RPMI8226 cells) of the same substance?
Answer: decreased

Question: What about the “percentage” value (K562 cells; E:T 1:1, 4 hr incubation) of the same substance?
Answer: decreased

Question: And the “percentage” value (K562 cells; E:T 1:1, 6 hr incubation)?
Answer: decreased

Question: What about the “percentage” value (MM1.S cells) of the same substance?
Answer: decreased

Question: What about the p-P44/42 [1, 4] of the same substance?
Answer: decreased expression

Question: And the p-SHP1 [1, 4]?
Answer: activated

Question: And the p-SHP2 [1, 4]?
Answer: activated

Question: What about the p-STAT3 [1, 4] of the same substance?
Answer: activated

Question: What about the p-P44/42 expression [1, 5] of the same substance?
Answer: decreasing

Question: And the p-SHP1 expression [1, 5]?
Answer: increasing

Question: And the p-SHP2 expression [1, 5]?
Answer: increasing

Question: What about the NKG2D expression levels [2] of the same substance?
Answer: decreasing expression levels

Question: What about the NKG2A expression [3] of the same substance?
Answer: increasing expression
